In US6852696B2, “Inhibitors of glycosaminoglycans” (The University of Texas System, priority 1999, dated 2005):

Experiments:
XS52 DC = assay: Cytokine secretion by XS52 DC stimulated with HA fragments (ELISA); format: cell-based; conditions: 500 μg/ml; HA fragments 50 μg/ml
Experimental: FIGS. 5A-C. Impact of Pep-1 on HA degradation products. (FIG. 5A) 96 well plates were coated with biotinylated-HA (0.1 μg/ml) and pretreated with 500 μg/ml of Pep-1 (open circles), RP (closed circles), or PBS alone (triangles) for 3 hours. These plates were then incubated for 30 min in the presence of HAase (from bovine testis). After extensive wash, the amounts of remaining biotinylated HA on the plates were determined by addition of streptavidin-alkaline phosphatase followed by p-nitrophenyl phosphate substrate. The % HA digestion was calculated from the optical densities. The data shown are the means+/−s.e.m.from triplicate samples analyzed with a hyperbolic model. (FIG. 5B) The impact of Pep-1 on HA digestion and on cell adhesion was examined in parallel using the HA-coated plates prepared simultaneously. Pep-1, RP, or PBS alone was added to the HA-coated plates as above and their effects on HAase-mediated HA degradation and on the adhesion of ^35S-labeled BW5147 thymoma cells were compared. The data shown are the means+/−s.e.m.(n=3) of 50% inhibition doses of HAase (left) and % cell adhesion (right). […] (FIG. 5C) Low molecular weight HA fragments were prepared by sonication of HMW HA followed by overnight digestion with HAase at 37° C. […] Results are expressed as the means+/−s.e.m.from triplicate samples. […]

Langerhans cells (LC) = assay: Hapten (DNFB)-triggered LC emigration from the epidermis; format: in vivo, BALB/c mice; conditions: two local injections before DNFB
Experimental: FIG. 3. Impact of multimeric Pep-1 derivatives on hapten-induced LC migration. BALB/c mice received two local injections of the indicated Pep-1 derivatives in the right ear (closed circles) and the indicated RP derivatives in the left ear 24 and 3 hours before topical application of 0.5% DNFB on both ears. All the peptides were administered at the identical dose in terms of the molarity ([…]) of the 16-mer Pep-1 peptide sequence, i.e., 40 μg/injection/ear for monomeric Pep-1 and RP, […] for dimeric Pep-1 and RP, or 160 μg/injection/ear for PEG-conjugated tetrameric Pep-1 and RP. Ear skin samples were harvested at the indicated time points after DNFB painting and examined for surface densities of IA^+ LC. Data shown are the means+/−s.e.m.(n=3) of % LC emigration as calculated by dividing from the formula: [(LC number before DNFB application−LC number after DNFB application)/LC number before DNFB application]×100. Asterisks indicate statistically significant differences between the Pep-1 and the RP panels (**p<0.01 by two-tailed Student's t-test).
Pep-1 and its dimeric and tetrameric derivatives were compared for their in vivo activities to prevent hapten-triggered LC emigration from the epidermis.

For GAHWQFNALTVR [Pep-1], which “inhibition of IL-6 secretion triggered by HA fragments” value (XS52 DC) is on record?
The value was “inhibited the secretion of both cytokines almost completely”.

And the “inhibition of TNFα secretion triggered by HA fragments” value (XS52 DC)?
Its value is “inhibited the secretion of both cytokines almost completely”.

What about the “inhibition of LC emigration” value (Langerhans cells (LC); 24 hr after DNFB application) of the same sequence?
The value was “inhibited LC emigration almost completely”.

And the “inhibition of LC emigration” value (Langerhans cells (LC); 48 hr after DNFB application)?
The value was “kinetics comparable to those observed in the control group receiving random peptide (RP) injections”.

And the “inhibition of LC emigration” value (Langerhans cells (LC); 72 hr after DNFB application)?
Its value is “kinetics comparable to those observed in the control group receiving random peptide (RP) injections”.
